Data as given in PMC11769049, “Phytomedicine Potential of Oroxylum indicum Root and Its Constituents: Targeting Alzheimer’s Disease” (Plants, 2025).

How the values were obtained:
[1] = target: T1, Electric eel-type VI-S AChE (Electrophorus electricus, UniProt O42275); experiment: AChE inhibition, modified Ellman's method; type: biochemical
T1 construct: purchased
Method: The anti-acetylcholinesterase activity of the extract of O. indicum root and its three constituent compounds was evaluated using a modified Ellman’s method. A microplate-based assay was conducted in triplicate, comprising (i) 25 µL of 1 mM acetylthiocholine iodide, (ii) 50 µL of 0.1 M phosphate buffer (PBS), (iii) 25 µL of the sample, and (iv) 125 µL of 1 mM dithiobisnitrobenzoic acid. Electric eel-type VI-S AChE (0.2 Units/mL) was added. The control group lacked both the sample and enzyme. […] Tacrine served as a reference standard. Enzymatic activity and percent inhibition were assessed. The following equation was used to determine inhibitory activity:Percentage inhibition = [(AE − As)/(AE − AC)] × 100 where AE, AC, and As represent the enzymatic activities of the enzyme, control, and sample, respectively. The AChE inhibitory activity of the samples was expressed as the half-maximal inhibitory concentration (IC50).

[2] = tested on: Bax; experiment: Western blot of Bax in H2O2-exposed SH-SY5Y cells; type: cell-based, Human; conditions: 250 μM H2O2, pretreatment with extract (1, 3, 10 µg/mL) or baicalein (1, 3, 10 µM)
Method: (§1) Neuronal cells were pretreated with the extract (1, 3, and 10 µg/mL) or baicalein (1, 3, and 10 µM) for 30 min, followed by induction of oxidative stress with hydrogen peroxide (H2O2). […] NAC (100 µg/mL) was used for the standard substance. For the experiment, SH-SY5Y cells (1 × 10^5 cells/well) were seeded onto a 6-well plate and cultured for 2 days. […] After washing unabsorbed chemicals, the cells were exposed to 250 μM H2O2 for 5 min. Treated cells were lysed with an ice-cold lysis solution. The supernatant was obtained after centrifuging the lysate at 13,500 rpm for 10 min at 4 °C. The Bradford test was used to determine the total protein content. Proteins were separated on a polyvinylidene difluoride membrane using SDS-PAGE. After blocking with BlockAce, the membrane was probed with primary antibodies against BAX, cleaved caspase-3, pTau, and BACE1. Secondary antibodies coupled with horseradish peroxidase were used for detection, followed by enhanced chemiluminescence.

[3] = tested on: cleaved caspase-3; experiment: Western blot of cleaved caspase-3 in H2O2-exposed SH-SY5Y cells; type: cell-based, Human; conditions: 250 μM H2O2, pretreatment with extract (1, 3, 10 µg/mL) or baicalein (1, 3, 10 µM)
Method: as §1

[4] = tested on: BACE1; experiment: Western blot of BACE1 in H2O2-exposed SH-SY5Y cells; type: cell-based, Human; conditions: 250 μM H2O2, pretreatment with extract (1, 3, 10 µg/mL) or baicalein (1, 3, 10 µM)
Method: as §1

[5] = tested on: phosphorylated tau protein; experiment: Western blot of phosphorylated tau in H2O2-exposed SH-SY5Y cells; type: cell-based, Human; conditions: 250 μM H2O2, pretreatment with extract (1, 3, 10 µg/mL) or baicalein (1, 3, 10 µM)
Method: as §1

[6] = DPPH radical scavenging method; conditions: for IC50: read-out: IC50 DPPH, mean ± SD (n = 3)
Method: After 30 min incubation period, the absorbance at 520 nm was measured using a microplate reader. The DPPH radical scavenging ability was calculated according to the following equation:Percentage inhibition = [(ADPPH − Asample)/(ADPPH − Acontrol)] × 100 where ADPPH, Asample, and Acontrol are the absorbance values of DPPH solution, sample, and control, respectively.

[7] = target: Aβ1–42 (Homo sapiens, UniProt P05067); experiment: Aβ1–42 aggregation inhibition, thioflavin-T (ThT) fluorescence assay
Aβ1–42, sequence (P05067 672-713 limits assumed): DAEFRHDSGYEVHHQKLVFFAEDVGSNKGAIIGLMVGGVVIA
Method: The aggregation of Aβ1–42 was monitored using a thioflavin-T (ThT) fluorescence assay [58]. […] Following a 48 h incubation period, the mixtures were treated with 175 µL of 5 µM ThT solution prepared in a glycine/NaOH buffer at pH 8.5.

T1 sequence (O42275 24-633): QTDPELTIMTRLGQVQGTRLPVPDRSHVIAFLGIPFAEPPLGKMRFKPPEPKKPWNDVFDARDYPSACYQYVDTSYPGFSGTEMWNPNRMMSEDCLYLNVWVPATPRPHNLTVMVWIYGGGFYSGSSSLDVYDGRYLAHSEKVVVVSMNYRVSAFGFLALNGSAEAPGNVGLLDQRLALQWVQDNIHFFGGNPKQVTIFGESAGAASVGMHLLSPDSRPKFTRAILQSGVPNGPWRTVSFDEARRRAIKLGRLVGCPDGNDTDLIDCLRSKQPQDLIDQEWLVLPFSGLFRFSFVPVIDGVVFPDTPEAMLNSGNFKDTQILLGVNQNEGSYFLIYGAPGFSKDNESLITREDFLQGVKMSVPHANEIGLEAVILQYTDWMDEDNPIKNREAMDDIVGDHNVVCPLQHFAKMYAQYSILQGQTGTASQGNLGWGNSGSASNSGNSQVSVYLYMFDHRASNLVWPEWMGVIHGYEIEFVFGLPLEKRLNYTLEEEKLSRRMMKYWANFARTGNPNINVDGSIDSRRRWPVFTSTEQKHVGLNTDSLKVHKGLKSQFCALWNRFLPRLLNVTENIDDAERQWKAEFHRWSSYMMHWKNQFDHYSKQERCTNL

| Compound | IC50 [1] [µM] | expression of pro-apoptotic protein Bax [2] | expression of cleaved caspase-3 [3] | BACE1 expression (H2O2-induced increase) [4] | levels of phosphorylated tau protein [5] | IC50 [6] [µM] | IC50 [7] [µM] | DPPH radical scavenging activity ([6]; up to 100 µg/mL) |
| --- | --- | --- | --- | --- | --- | --- | --- | --- |
| O=c1cc(-c2ccccc2)oc2cc(O)c(O)c(O)c12 [Baicalein] | 159 ± 1.15 | significantly downregulated | significantly downregulated | effectively mitigated this increase | significantly reduced | 19.08 ± 0.17 |  |  |
| O=c1cc(-c2ccccc2)oc2cc(O)cc(O)c12 [Chrysin] | 45.9 ± 1.32 |  |  |  |  | 63.3 ± 0.89 | 5.86 ± 0.16 |  |
| COc1c(O)cc2oc(-c3ccccc3)cc(=O)c2c1O [Oroxylin A] | 86.9 ± 1.85 |  |  |  |  | > 100 | 8.19 ± 0.28 | minimal DPPH radical scavenging activity |
| Cc1c(C)c2c(c(C)c1O)CCC(C)(C(=O)O)O2 (centres unmarked) [Trolox, reference compound] |  |  |  |  |  | 29.8 ± 1.59 |  |  |
